Experimental data from patent publication US6875418B2, “Method of early detection of Duchenne muscular dystrophy and other neuromuscular disease” (Mouse Specifics, Inc., priority 2001, dated 2005).

Tests used:
C57 mice [1] = test: Autonomic blockade, ECG heart rate and heart-rate variability in conscious C57 control mice; type: in vivo, mouse
Protocol: (§1) Male control C57BL/10ScSn (C57, n=15) and male mutant (mdx, n=15) mice (10-12 weeks old) were obtained from The Jackson Laboratory, Bar Harbor, Me. The animals were housed in standard conditions within the Animal Resource Facility at the Beth Israel Deaconess Medical Center. Handling and care of mice were consistent with federal and institutional guidelines.
(§2) ECGs were recorded in conscious mice as follows. Briefly, mice were gently removed from their cages and positioned on the ECG recording platform (AnonyMOUSE, Mouse Specifics, Inc., Boston, Mass.). An array of gel-coated ECG electrodes were embedded in the floor of the platform and spaced to provide contact between the electrodes and animals' paws. The electrodes were connected to an amplifier by three shielded conductive leads. As even modest handling of mice induces significant alterations in heart-rate, each mouse was permitted to acclimatize for 10 min prior to collection of baseline data. The signals were digitized with 16-bit precision at a sampling rate of 2000 samples/second. When mice were sitting or otherwise positioned such that the paws were not in contact with three electrodes, the output from the amplifier was discarded. Only data from continuous recordings of 15-25 ECG signals were used in the analyses.
Analyses of the ECGs were performed as described as follows. Each signal was analyzed using e-MOUSE, internet-based physiologic waveform analyses software. The program incorporates Fourier analyses and linear time-invariant digital filtering of frequencies below 2 Hz and above 100 Hz to minimize signal environmental disturbances. The software uses a peak detection algorithm to find the peak of the R-waves and to calculate heart-rate (HR). The inverted and/or biphasic portions of the T wave was included in calculations of the QT interval. The QT intervals were rate corrected (QTc) by an algorithm developed for use in mice. The software plots its interpretation of P, Q, R, S, and T for each beat so that spurious data resulting from unfiltered noise or motion artifacts may be rejected. The mean of the ECG time intervals for each set of waveforms is then calculated.
(§3) Heart-rate variability (HRV) was calculated as the standard deviation of all R—R intervals for each set of ECG signals. The coefficient of variance (CV,%) was calculated as the ratio of mean HRV to mean heart-rate.
Parasympathetic and sympathetic nervous system control of heart-rate regulation were investigated by pharmacological blockade. Mice received intraperitoneal administration of atropine (0.5 mg/kg) for parasympathetic blockade (n=15 mdx, n=15 C57), propranolol (1 mg/kg) for sympathetic blockade (n=10 mdx, n=7 C57), and atropine (0.5 mg/kg) plus propranolol (1 mg/kg) for combined β-adrenergic and muscarinic cholinergic blockade (n=10 mdx, n=7 C57). Baseline ECGs were recorded within 5 min prior to each administration and after a 5-10 min equilibrium phase after drug administration to allow for HR stabilization. The pharmacological interventions were performed on different days to prevent interference between drugs. […]
To study the effect of autonomic blockers on dystrophin deficient mice, parasympathetic and sympathetic nervous system control of heart-rate regulation were investigated by pharmacological blockade. […] Baseline ECGs were recorded within 5 min prior to each administration and after a 5-10 min equilibrium phase after drug administration to allow for HR stabilization.

mdx mice [2] = test: Autonomic blockade, ECG heart rate and heart-rate variability in conscious mdx mice; type: in vivo, mouse
Protocol: as §1, §2
(§4) Analyses of the ECGs were performed as described as follows. Each signal was analyzed using e-MOUSE, internet-based physiologic waveform analyses software. […] The mean of the ECG time intervals for each set of waveforms is then calculated.
as §3
Parasympathetic and sympathetic nervous system control of heart-rate regulation were investigated by pharmacological blockade. […] Baseline ECGs were recorded within 5 min prior to each administration and after a 5-10 min equilibrium phase after drug administration to allow for HR stabilization. […]

nNOS -/- mice [3] = test: Autonomic blockade, ECG heart rate and heart-rate variability in conscious nNOS -/- mice
nNOS -/- mice [4] = test: Baroreflex pressor response to phenylephrine in nNOS -/- mice; type: in vivo, mouse
C57 mice [5] = test: Baroreflex pressor response to phenylephrine after β-adrenergic blockade in C57 mice; type: in vivo, mouse; settings: phenylephrine 3 mg/kg i.p. after propranolol 1 mg/kg
Protocol: as §2
as §4, with “software. The program incorporates Fourier analyses and linear time-invariant digital filtering of frequencies below 2 Hz and above 100 Hz to minimize signal environmental disturbances.” for “software.”
as §3
(§5) Mice were administered intraperitoneal phenylephrine (3 mg/kg) after β-adrenergic blockade with propranolol (1 mg/kg) to test for a baroreflex-mediated cardio-inhibitory response (n=10 mdx, n=7 C57).16,21 After baseline recordings, ECGs were recorded after a 5-10 min equilibrium phase following propranolol administration to allow for HR stabilization, and then within 2 min following phenylephrine administration. Changes in ECG indices following phenylephrine were determined relative to those recorded following propranolol administration. […]

mdx mice [6] = test: Baroreflex pressor response to phenylephrine after β-adrenergic blockade in mdx mice; type: in vivo, mouse; settings: phenylephrine 3 mg/kg i.p. after propranolol 1 mg/kg
Protocol: as §2
as §4, with “software. The program incorporates Fourier analyses and linear time-invariant digital filtering of frequencies below 2 Hz and above 100 Hz to minimize signal environmental disturbances.” for “software.”
as §3, §5

B6129 mice = test: Baroreflex pressor response to phenylephrine in B6129 control mice; type: in vivo, mouse
[7] = C57 mice, i.p., 5-10 min after drug vs baseline, atropine 0.5 mg/kg, propranolol 1 mg/kg
[8] = phenylephrine after propranolol
[9] = within 2 min, relative to post-propranolol

`CN1[C@@H]2CC[C@H]1C[C@@H](OC(=O)C(CO)c1ccccc1)C2` (stereo partly shown) [atropine] was tested, and the “direction of heart-rate change in individual mice” value (C57 mice [1]; C57 mice n=15, atropine 0.5 mg/kg i.p.) was “increased in all but 2 of the C57 mice”, the “HRV after atropine administration” value (C57 mice [1]; C57 mice, atropine 0.5 mg/kg i.p., baseline 2.7±0.9 ms) was 0.5 ± 0.9 ms and the “change in HRV” value (C57 mice [1]; [7]) was -1.6 ± 0.7 ms. For the same compound, the “direction of heart-rate change in individual mice” value (mdx mice [2]; mdx mice n=15, atropine 0.5 mg/kg i.p.) was “decreased in all 15 mdx mice”, the “HR decreased by” value (mdx mice [2]; mdx mice, atropine 0.5 mg/kg i.p., FIG. 2a legend) was 90±14 bpm and the “directional change in HR in response to drug” value (nNOS -/- mice [3]; FIG. 5) was “significantly increased HR”. For the same compound, the “HR after atropine administration” value (nNOS -/- mice [3]; baseline 686±22 bpm, P=0.07) was 721±12 bpm, the “HRV after atropine administration” value (nNOS -/- mice [3]; from 2.6±0.1 ms, P<0.05) was 0.7 ± 0.1 ms and the “CV after atropine administration” value (nNOS -/- mice [3]; from 2.7±0.8%, P<0.05) was 0.8±0.1%.

For `CNC[C@H](O)c1cccc(O)c1` [phenylephrine], the “increase in HRV after phenylephrine” value (nNOS -/- mice [4]; Example 4) was “+13.3±3.7 ms”, the “change in HR after phenylephrine” value (nNOS -/- mice [4]; [8]) was −288±39 bpm and the “CV after phenylephrine administration” value (C57 mice [5]) was 15.8±2.4%. For the same compound, the “HRV after phenylephrine administration” value (C57 mice [5]) was 28.6 ± 4.1 ms, the “change in HR after phenylephrine” value (C57 mice [5]; [9]) was −312±27 bpm and the “CV after phenylephrine administration” value (mdx mice [6]) was 6.0±1.7%. The “HRV after phenylephrine administration” value (mdx mice [6]) was 8.5 ± 2.5 ms, the “change in HR after phenylephrine” value (mdx mice [6]; [9]) was −132±27 bpm and the “increase in HRV after phenylephrine” value (B6129 mice; Example 4) was “+11.8±3.7 ms”. The “change in HR after phenylephrine” value (B6129 mice; [8]) was −360±6 bpm.

In the case of `CC(C)NCC(O)COc1cccc2ccccc12` (stereo not shown) [propranolol], the “change in HRV” value (C57 mice [1]; [7]) is reported as “more significant in C57 than mdx mice”, the “change in HR” value (C57 mice [1]; C57 mice, i.p., 5-10 min after drug vs baseline, atropine 0.5 mg/kg, propranolol 1 mg/kg, mean±SE) is reported as −122±53 bpm and the “change in HR” value (mdx mice [2]; mdx mice, i.p., 5-10 min after drug vs baseline, atropine 0.5 mg/kg, propranolol 1 mg/kg, mean±SE) is reported as −60±27 bpm.
